Laboratory results: patent publication US7998940B2, “Aptamers to von Willebrand factor and their use as thrombotic disease therapeutics” (Archemix Corp., priority 2004, dated 2011)
Read-outs that look alike come from different tables or passages of the source. Oligonucleotides are written 5' to 3', each unit as a sugar letter and its base; * is a phosphorothioate linkage, no mark a phosphodiester; rarer units and linkages stand in square brackets, end groups in braces. Plain capitals give the bases only. [PEG] = polyethylene glycol spacer within the chain; [invdT] = inverted (3'-3') thymidine; d = 2'-deoxy (DNA); m = 2'-O-methyl

Test system: full length human vWF (SEQ ID NO 7)
Assay: dot blot KD determination and extent of binding, full length human vWF;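 note: dot blot binding of aptamers to full length human vWF across a protein titration, incubated 30 minutes at room temperature in 1x DPBS with BSA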
Conditions: for % binding @ 100 nM vWF: extent of aptamer binding at 100 nM full length human vWF; for Kd: full length human vWF, read-out: KD
[1] = Phase 3 modification, dot blot, 8 point protein titration

Substance | % binding @ 100 nM vWF (Phase 3 modification) | Kd [1] | % binding @ 100 nM vWF (Phase 4 and 5 modification) | Kd (Phase 4 and 5 modification) | also measured
ARC1371: ARC1361 with single phosphorothioate phosphate backbone modification (mGmCmGmUdGdCdAmGmUmGmCmCmUmUmCmGmGmCdCmGdTmGdC*dGdGdTmGmCdCmUdCdCmGmUdCmAmCmGmC[invdT]) | 32.1% | 8.4 nM |  |  | 
ARC1372: ARC1361 with single phosphorothioate phosphate backbone modification (mGmCmGmUdGdCdAmGmUmGmCmCmUmUmCmGmGmCdCmGdTmGdCdG*dGdTmGmCdCmUdCdCmGmUdCmAmCmGmC[invdT]; aptamer) | 35.2% | 23.5 nM |  |  | 
ARC1373: ARC1361 with single phosphorothioate phosphate backbone modification (mGmCmGmUdGdCdAmGmUmGmCmCmUmUmCmGmGmCdCmGdTmGdCdGdG*dTmGmCdCmUdCdCmGmUdCmAmCmGmC[invdT]; aptamer) | 33.0% | 7.1 nM |  |  | 
ARC1374: ARC1361 with single phosphorothioate phosphate backbone modification (mGmCmGmUdGdCdAmGmUmGmCmCmUmUmCmGmGmCdCmGdTmGdCdGdGdT*mGmCdCmUdCdCmGmUdCmAmCmGmC[invdT]; aptamer) | 27.2% | 9.5 nM |  |  | 
ARC1375: ARC1361 with single phosphorothioate phosphate backbone modification (mGmCmGmUdGdCdAmGmUmGmCmCmUmUmCmGmGmCdCmGdTmGdCdGdGdTmGmC*dCmUdCdCmGmUdCmAmCmGmC[invdT]; aptamer) | 25.5% | 8.8 nM |  |  | 
ARC1376: ARC1361 with single phosphorothioate phosphate backbone modification (mGmCmGmUdGdCdAmGmUmGmCmCmUmUmCmGmGmCdCmGdTmGdCdGdGdTmGmCdC*mUdCdCmGmUdCmAmCmGmC[invdT]; aptamer) | 31.3% | 4.4 nM |  |  | 
ARC1377: ARC1361 with single phosphorothioate phosphate backbone modification (mGmCmGmUdGdCdAmGmUmGmCmCmUmUmCmGmGmCdCmGdTmGdCdGdGdTmGmCdCmU*dCdCmGmUdCmAmCmGmC[invdT]; aptamer) | 30.9% | 7.4 nM |  |  | 
ARC1378: ARC1361 with single phosphorothioate phosphate backbone modification (mGmCmGmUdGdCdAmGmUmGmCmCmUmUmCmGmGmCdCmGdTmGdCdGdGdTmGmCdCmUdC*dCmGmUdCmAmCmGmC[invdT]; aptamer) | 31.1% | 9.1 nM |  |  | 
ARC1379: ARC1361 with single phosphorothioate phosphate backbone modification (mGmCmGmUdGdCdAmGmUmGmCmCmUmUmCmGmGmCdCmGdTmGdCdGdGdTmGmCdCmUdCdC*mGmUdCmAmCmGmC[invdT]; aptamer) | 31.3% | 10.4 nM |  |  | 
ARC1380: ARC1361 with single phosphorothioate phosphate backbone modification (mGmCmGmUdGdCdAmGmUmGmCmCmUmUmCmGmGmCdCmGdTmGdCdGdGdTmGmCdCmUdCdCmGmU*dCmAmCmGmC[invdT]) | 32.5% | 12 nM |  |  | 
ARC1381: ARC1361 with single phosphorothioate phosphate backbone modification (mGmCmGmUdGdCdAmGmUmGmCmCmUmUmCmGmGmCdCmGdTmGdCdGdGdTmGmCdCmUdCdCmGmUdC*mAmCmGmC[invdT]) | 35.8% | 8.7 nM |  |  | 
dGdGdCdGTdGdCdAdGTdGdCdCTTdCdGdGdCdCdG-s-TdGdCdGdGTdGdCdCTdCdCdGTdCdAdCdGdCdC-3T (dGdGdCdGdTdGdCdAdGdTdGdCdCdTdTdCdGdGdCdCdG*dTdGdCdGdGdTdGdCdCdTdCdCdGdTdCdAdCdGdCdC[invdT]) [ARC1759] |  |  | 46% | 0.7 nM | binding to human vWF (in words, dot blot): measurable improvement in affinity relative to ARC1172
dGdGdCdGTdGdCdAdGTdGdCdCTTdCdGdGdCdCdGTmGdCdGdGTmGmCdCmUdCdCmGmUmCdAdCdGdCdC-3T (dGdGdCdGdTdGdCdAdGdTdGdCdCdTdTdCdGdGdCdCdGdTmGdCdGdGdTmGmCdCmUdCdCmGmUmCdAdCdGdCdC[invdT]; aptamer) [ARC1340] |  |  |  |  | % binding @ 100 nM vWF (Phase 2 modification): 43%; Kd (Phase 2 modification): 7.4 nM
dGdGdCdGTdGdCdAmGmUdGdCdCTTdCdGdGdCdCmGTmGdCdGdGTdGdCdCTdCdCmGmUmCdAdCdGdCdC-3T (dGdGdCdGdTdGdCdAmGmUdGdCdCdTdTdCdGdGdCdCmGdTmGdCdGdGdTdGdCdCdTdCdCmGmUmCdAdCdGdCdC[invdT]; aptamer) [ARC1339] |  |  |  |  | % binding @ 100 nM vWF (Phase 2 modification): 39%; Kd (Phase 2 modification): 2.4 nM
mCmCmGmGmCdCmG-s-TmGdCdGdGTmGmCdCmUdCdCmGmUdCmAmCmGmUmUmCmCmGmUdGdCdAmGmUmGmCmCmGmG-3T (mCmCmGmGmCdCmG*dTmGdCdGdGdTmGmCdCmUdCdCmGmUdCmAmCmGmUmUmCmCmGmUdGdCdAmGmUmGmCmCmGmG[invdT]; aptamer) [ARC1546] |  |  | 26% | 24 nM | 
mCmCmGmGmCdCmG-s-TmGdCdGdGTmGmCdCmUdCdCmGmUmCmAmCmUmUmUmGmUdGdCdAmGmUmGmCmCmGmG-3T (mCmCmGmGmCdCmG*dTmGdCdGdGdTmGmCdCmUdCdCmGmUmCmAmCmUmUmUmGmUdGdCdAmGmUmGmCmCmGmG[invdT]; aptamer) [ARC1535] |  |  | 48.3% | 27.1 nM | 
mCmGmGmCdCmG-s-TmGdCdGdGTmGmCdCmUdCdCmGmUmCmAmCmUmUmUmGmUdGdCdAmGmUmGmCmCmG-3T (mCmGmGmCdCmG*dTmGdCdGdGdTmGmCdCmUdCdCmGmUmCmAmCmUmUmUmGmUdGdCdAmGmUmGmCmCmG[invdT]; aptamer) [ARC1534] |  |  | 25.6% | 62.8 nM | 
mCmGmUdGdCdAmGmUmGmCmCPEGmGmGmCdCmG-s-TmGdCdGdGTmGmCdCmUdCdCmGmUdCmAmCmG-3T (mCmGmUdGdCdAmGmUmGmCmC[PEG]mGmGmCdCmG*dTmGdCdGdGdTmGmCdCmUdCdCmGmUdCmAmCmG[invdT]; aptamer) [ARC1531] |  |  | 20.0% | 1.5 nM | 
mCmGmUdGdCdAmGmUmGmCmCPEGmGmGmCdCmG-s-TmGdCdGdGTmGmCdCmUdCdCmGmUmCmAmCmG-3T (mCmGmUdGdCdAmGmUmGmCmC[PEG]mGmGmCdCmG*dTmGdCdGdGdTmGmCdCmUdCdCmGmUmCmAmCmG[invdT]; aptamer) [ARC1532] |  |  | 19.3% | 2.6 nM | 
mCmGmUdGdCdAmGmUmGmCmCmUmUmCmGmGmCdCmG-s-TmGdCdGdGTmGmCdCmUdCdCmGmUmCmAmCmG-3T (mCmGmUdGdCdAmGmUmGmCmCmUmUmCmGmGmCdCmG*dTmGdCdGdGdTmGmCdCmUdCdCmGmUmCmAmCmG[invdT]; aptamer) [ARC1529] |  |  | 22.6% | 12.3 nM | 
mCmGmUdGdCdAmGmUmGmCmCmUmUmUmGmGmCdCmG-s-TmGdCdGdGTmGmCdCmUdCdCmGmUmCmAmCmG-3T (mCmGmUdGdCdAmGmUmGmCmCmUmUmUmGmGmCdCmG*dTmGdCdGdGdTmGmCdCmUdCdCmGmUmCmAmCmG[invdT]; aptamer) [ARC1530] |  |  | 19.2% | 15 nM | 
mGmCmGmUdGdCdAmGmUmGmCmCPEGmGmGmCdCmG-s-TmGdCdGdGTmGmCdCmUdCdCmGmUdCmAmCmGmC-3T (mGmCmGmUdGdCdAmGmUmGmCmC[PEG]mGmGmCdCmG*dTmGdCdGdGdTmGmCdCmUdCdCmGmUdCmAmCmGmC[invdT]) [ARC1527] |  |  | 14.1% | 3.4 nM | 
mGmCmGmUdGdCdAmGmUmGmCmCPEGmGmGmCdCmG-s-TmGdCdGdGTmGmCdCmUdCdCmGmUmCmAmCmGmC-3T (mGmCmGmUdGdCdAmGmUmGmCmC[PEG]mGmGmCdCmG*dTmGdCdGdGdTmGmCdCmUdCdCmGmUmCmAmCmGmC[invdT]; aptamer) [ARC1528] |  |  | 10.2% | 4.2 nM | 
mGmCmGmUdGdCdAmGmUmGmCmCmUmUmCmGmGmCdCmG-s-TmGdCdGdGTmGmCdCmUdCdCmGmUmCmAmCmGmC-3T (mGmCmGmUdGdCdAmGmUmGmCmCmUmUmCmGmGmCdCmG*dTmGdCdGdGdTmGmCdCmUdCdCmGmUmCmAmCmGmC[invdT]) [ARC1524] |  |  | 26.5% | 5.7 nM | 
mGmCmGmUdGdCdAmGmUmGmCmCmUmUmUmGmGmCdCmG-s-TmGdCdGdGTmGmCdCmUdCdCmGmUmCmAmCmGmC-3T (mGmCmGmUdGdCdAmGmUmGmCmCmUmUmUmGmGmCdCmG*dTmGdCdGdGdTmGmCdCmUdCdCmGmUmCmAmCmGmC[invdT]) [ARC1526] |  |  | 29.0% | 4.7 nM | 
mGmGmCmGmU-s-dG-s-dC-s-dAmGmUmGmCmCmUmUmCmGmGmC-s-dCmG-s-TmG-s-dC-s-dG-s-dG-s-TmGmC-s-dCmU-s-dC-s-dCmGmUmCmAmCmGmCmC-3T (mGmGmCmGmU*dG*dC*dAmGmUmGmCmCmUmUmCmGmGmC*dCmG*dTmG*dC*dG*dG*dTmGmC*dCmU*dC*dCmGmUmCmAmCmGmCmC[invdT]) [ARC1345] |  |  |  |  | % binding @ 100 nM vWF (Phase 2 modification): 29%; Kd (Phase 2 modification): 12.1 nM
mGmGmCmGmUdG-s-dC-s-dAmGmUmGmCmCmUmUmCmGmGmC-s-dCmGTmGdC-s-dG-s-dGTmGmCdCmUdC-s-dCmGmUmCmAmCmGmCmC-3T (mGmGmCmGmUdG*dC*dAmGmUmGmCmCmUmUmCmGmGmC*dCmGdTmGdC*dG*dGdTmGmCdCmUdC*dCmGmUmCmAmCmGmCmC[invdT]) [ARC1344] |  |  |  |  | % binding @ 100 nM vWF (Phase 2 modification): 17%; Kd (Phase 2 modification): 4.8 nM
mGmGmCmGmUdG-s-dCdAmGmUmGmCmCmUmUmCmGmGmC-s-dCmGTmGdCdG-s-dGTmGmCdCmUdC-s-dCmGmUmCmAmCmGmCmC-3T (mGmGmCmGmUdG*dCdAmGmUmGmCmCmUmUmCmGmGmC*dCmGdTmGdCdG*dGdTmGmCdCmUdC*dCmGmUmCmAmCmGmCmC[invdT]) [ARC1343] |  |  |  |  | % binding @ 100 nM vWF (Phase 2 modification): 21%; Kd (Phase 2 modification): 23.9 nM
mGmGmCmGmUdGdCdAdGTdGdCdCTTdCdGdGdCdCdGTdGdCdGdGTdGdCdCTdCdCdGTdCmAmCmGmCmC-3T (mGmGmCmGmUdGdCdAdGdTdGdCdCdTdTdCdGdGdCdCdGdTdGdCdGdGdTdGdCdCdTdCdCdGdTdCmAmCmGmCmC[invdT]; aptamer) [ARC1338] |  |  |  |  | % binding @ 100 nM vWF (Phase 2 modification): 21%; Kd (Phase 2 modification): 7.4 nM
